Assay results reported in US20240287074A1, “SALTS AND CRYSTALS” (Kinoxis Therapeutics Pty Ltd, priority 2020, published 2024).
Where a name gives a salt, the structure may show the parent alone. Marks after values point to notes of the source that are not given here.

Experiments:
[1] = Primary salt screen: XRPD pattern after drying and after 40° C./75% RH; format: physicochemical
Experimental: The following procedure was used: • Approximately 30 mg of 1-methyl-1,4,5,10-tetrahydropyrazolo[3,4-b][1,5]benzodiazepine freebase was weighed into 5×1.5 mL glass vials. • 300 μL of selected solvent system was added to each vial to form a mobile slurry, and a beige slurry was observed. • 1.05 (or 0.525 for the hemi experiments) equivalents of acid counterion (see Table 1) was added to each sample and initial observations were recorded. • The samples were temperature cycled between ambient and 40° C. in 4-hour cycles for about 72 hours. • The samples were collected, and observations made. • Samples in which solids were observed were filtered via centrifugation and the solids were loaded onto a multi-well XRPD plate and analyzed by XRPD. • Samples in which no solids were observed were uncapped and left undisturbed to allow evaporation at ambient temperature.

[2] = Oral pharmacokinetics in rats; format: in vivo; conditions: male Sprague Dawley rats; for Plasma AUC0-inf/Dose / Plasma Cmax/Dose: dose-normalised; for Plasma AUC0-inf/Dose / Plasma Cmax/Dose / % Dose in urine: listed as Phosphate salt; for Apparent t1/2 / BA % / Plasma AUC0-inf / Plasma Cmax / Tmax / % Dose in urine: 5 mg/kg target dose (freebase equivalent), 5 mg/kg; for Apparent t1/2 / BA % / Plasma AUC0-inf / Plasma Cmax / Tmax: mean ± SD, n = 3, listed as Phosphate salt; for % Dose in urine: urine up to 24 h
Experimental: N=3 rats were run in each of the four conditions: • (1) Di-HCL salt in saline • (2) Di-HCL salt in methocel • (3) Phosphate form 1 in saline • (4) Phosphate form 1 in methocel
On the day of dosing the solid compounds were dissolved in either Saline (0.9%) or 0.5% hydroxypropyl methylcellulose (Methocel E3 Premium LV) in Milli-Q water. The formulations were then thoroughly vortexed to produce colourless solutions.
Overnight-fasted rats with adlibitum access to water were administered their dose of the various forms of the compound of the invention via oral gavage (PO) at a dose volume of 3 ml/kg and a dose of 5 mg/kg freebase equivalent. Food access was re-instated 4 hours (h) post-dose. Samples of arterial blood were collected up to 24 h post-dose. After collection, samples were centrifuged, plasma was removed and stored frozen at −80° C. before being analysed by LC-MS. Urine samples were collected at pre, 0-4 h, 4-7 h and 7-24 h post-dose and were analysed by LC-MS following extraction.

Structure (SMILES): Cn1ncc2c1Nc1ccccc1NC2 [Phosphate form 1, phosphoric acid addition salt of 1-methyl-1,4,5,10-tetrahydropyrazolo[3,4-b][1,5]benzodiazepine]
- thermal stability and hygroscopicity ([1]; conclusion of salt screen): acceptable thermal stability and hygroscopicity
- Post-Drying (XRPD pattern) ([1]; oven at 40° C. for about 24 hours, listed as Phosphate pattern 1): Pattern 1
- Comments (stability) ([1]; salt screen summary): Good
- Post 40° C./75% RH (XRPD pattern) ([1]; stability chamber at 40° C./75% RH for about 24 hours, listed as Phosphate pattern 1): Pattern 1
- Plasma AUC0-inf/Dose ([2]; Methocel): 0.85 ± 0.18 (μg*h/mL)/(mg/kg)
- Plasma Cmax/Dose ([2]; Methocel): 0.41 ± 0.05 (μg/mL)/(mg/kg)
- Plasma AUC0-inf/Dose ([2]; Saline): 1.02 ± 0.36 (μg*h/mL)/(mg/kg)
- Plasma Cmax/Dose ([2]; Saline): 0.43 ± 0.03 (μg/mL)/(mg/kg)
- Apparent t1/2 ([2]; Methocel): 36 ± 1.2 min
- BA % ([2]; Methocel): 93.2 ± 20^b %
- Plasma AUC0-inf ([2]; Methocel): 4160 ± 880 ng·h/mL
- Plasma Cmax ([2]; Methocel): 2010 ± 250 ng/mL
- Tmax ([2]; Methocel): 15 ± 0 min
- % Dose in urine ([2]; Methocel): 0.222 ± 0.093%
- Apparent t1/2 ([2]; Saline): 48.6 ± 12 min
- BA % ([2]; Saline): 111 ± 40^b %
- Plasma AUC0-inf ([2]; Saline): 4950 ± 1750 ng·h/mL
- Plasma Cmax ([2]; Saline): 2090 ± 140 ng/mL
- Tmax ([2]; Saline): 30 ± 24 min
- % Dose in urine ([2]; Saline): 0.395^d %
- exposure profile compared with dihydrochloride salt form ([2]; saline or methocel vehicle): same exposure profile
